Assay results reported in patent US12357701B2, “Anti-HER2 biparatopic antibody-drug conjugates and methods of use” (Zymeworks BC Inc., priority 2018, dated 2025).

Key:
Format in all cases: in vivo, cynomolgus monkeys
[1] = Single-dose pharmacokinetics/tolerability study of v17597 and v21252; conditions: all below LLOQ
Procedure: General tolerability was assessed with clinical observations, body weight, food consumption, and clinical pathology (hematology and clinical chemistry).
Serum concentrations of total antibody were analyzed using an Electrochemiluminescence assay with Meso Scale Discovery platform (ECL/MSD) with anti-pertuzumab antibody as the capture agent and anti-trastuzumab sulfo-TAG as the detection agent.
Serum samples were precipitated with acetonitrile/methanol (50:50, v/v) and supernatants were analyzed. The liquid chromatography system used was a reverse phase column with a gradient flow consisting of water/acetic acid (100/0.05, v/v) and acetonitrile.
Non-compartmental analysis of the serum sample bioanalytical results was used to derive PK parameters (maximum serum concentration [Cmax], terminal half-life [T1/2], clearance [CL] and apparent volume of distribution [Vss]).

[2] = Non-GLP repeat-dose toxicity study of v21252; conditions: after repeat administration of v21252 9 or 12 mg/kg; all below limit of quantitation except three animals
Procedure: (§1) All animals were evaluated for changes in clinical signs, food consumption, body weight, blood pressure, ECGs, respiration rates (visual), clinical pathology (hematology, clinical chemistry, coagulation, urinalysis), organ weights, and macroscopic/microscopic examination of tissues.

[3] = GLP toxicity study of v21252
Procedure: as §1

CCC(C)[C@@H]([C@@H](CC(=O)N1CCC[C@H]1[C@H](OC)[C@@H](C)C(=O)NS(=O)(=O)c1ccc(N)cc1)OC)N(C)C(=O)[C@@H](NC(=O)[C@H](C(C)C)N(C)C)C(C)C (stereo in doubt) [Compound 9, (S)—N-((3R,4S,5R)-1-((S)-2-((1R,2R)-3-((4-aminophenyl)sulfonamido)-1-methoxy-2-methyl-3-oxopropyl)pyrrolidin-1-yl)-3-methoxy-5-methyl-1-oxoheptan-4-yl)-2-((S)-2-(dimethylamino)-3-methylbutanamido)-N,3-dimethylbutanamide]
toxin (Compound 9) serum concentration ([1]; after single dose of v17597 (3, 6 or 9 mg/kg)): < 5.00 ng/mL
toxin (Compound 9) serum concentration ([1]; after single dose of v21252 (9 or 12 mg/kg)): < 5.00 ng/mL
payload (Compound 9) serum concentration [2]: < 0.500 ng/mL
toxin (Compound 9) serum concentration ([3]; after repeat administrations of v21252, most concentrations below limit of quantitation): < 0.500 ng/mL
AUC(0-t) ([3]; male, cynomolgus monkey, serum, iv, 18 mg/kg): 125 ng·h/mL
